This is an account of results in ChEMBL document CHEMBL1140456, “Synthesis and screening of 3-substituted thioxanthen-9-one-10,10-dioxides” (Bioorg Med Chem Lett, 2007).

One may read the Ki as the equilibrium dissociation constant of an inhibitor or competing ligand from its target.

This assay deals with Breast cancer type 1 susceptibility protein (Homo sapiens, UniProt P38398). The assay is described as follows: Inhibition of BRCA1 assessed as BRCT-BACH1 interaction.
Breast cancer type 1 susceptibility protein, sequence (P38398 whole entry): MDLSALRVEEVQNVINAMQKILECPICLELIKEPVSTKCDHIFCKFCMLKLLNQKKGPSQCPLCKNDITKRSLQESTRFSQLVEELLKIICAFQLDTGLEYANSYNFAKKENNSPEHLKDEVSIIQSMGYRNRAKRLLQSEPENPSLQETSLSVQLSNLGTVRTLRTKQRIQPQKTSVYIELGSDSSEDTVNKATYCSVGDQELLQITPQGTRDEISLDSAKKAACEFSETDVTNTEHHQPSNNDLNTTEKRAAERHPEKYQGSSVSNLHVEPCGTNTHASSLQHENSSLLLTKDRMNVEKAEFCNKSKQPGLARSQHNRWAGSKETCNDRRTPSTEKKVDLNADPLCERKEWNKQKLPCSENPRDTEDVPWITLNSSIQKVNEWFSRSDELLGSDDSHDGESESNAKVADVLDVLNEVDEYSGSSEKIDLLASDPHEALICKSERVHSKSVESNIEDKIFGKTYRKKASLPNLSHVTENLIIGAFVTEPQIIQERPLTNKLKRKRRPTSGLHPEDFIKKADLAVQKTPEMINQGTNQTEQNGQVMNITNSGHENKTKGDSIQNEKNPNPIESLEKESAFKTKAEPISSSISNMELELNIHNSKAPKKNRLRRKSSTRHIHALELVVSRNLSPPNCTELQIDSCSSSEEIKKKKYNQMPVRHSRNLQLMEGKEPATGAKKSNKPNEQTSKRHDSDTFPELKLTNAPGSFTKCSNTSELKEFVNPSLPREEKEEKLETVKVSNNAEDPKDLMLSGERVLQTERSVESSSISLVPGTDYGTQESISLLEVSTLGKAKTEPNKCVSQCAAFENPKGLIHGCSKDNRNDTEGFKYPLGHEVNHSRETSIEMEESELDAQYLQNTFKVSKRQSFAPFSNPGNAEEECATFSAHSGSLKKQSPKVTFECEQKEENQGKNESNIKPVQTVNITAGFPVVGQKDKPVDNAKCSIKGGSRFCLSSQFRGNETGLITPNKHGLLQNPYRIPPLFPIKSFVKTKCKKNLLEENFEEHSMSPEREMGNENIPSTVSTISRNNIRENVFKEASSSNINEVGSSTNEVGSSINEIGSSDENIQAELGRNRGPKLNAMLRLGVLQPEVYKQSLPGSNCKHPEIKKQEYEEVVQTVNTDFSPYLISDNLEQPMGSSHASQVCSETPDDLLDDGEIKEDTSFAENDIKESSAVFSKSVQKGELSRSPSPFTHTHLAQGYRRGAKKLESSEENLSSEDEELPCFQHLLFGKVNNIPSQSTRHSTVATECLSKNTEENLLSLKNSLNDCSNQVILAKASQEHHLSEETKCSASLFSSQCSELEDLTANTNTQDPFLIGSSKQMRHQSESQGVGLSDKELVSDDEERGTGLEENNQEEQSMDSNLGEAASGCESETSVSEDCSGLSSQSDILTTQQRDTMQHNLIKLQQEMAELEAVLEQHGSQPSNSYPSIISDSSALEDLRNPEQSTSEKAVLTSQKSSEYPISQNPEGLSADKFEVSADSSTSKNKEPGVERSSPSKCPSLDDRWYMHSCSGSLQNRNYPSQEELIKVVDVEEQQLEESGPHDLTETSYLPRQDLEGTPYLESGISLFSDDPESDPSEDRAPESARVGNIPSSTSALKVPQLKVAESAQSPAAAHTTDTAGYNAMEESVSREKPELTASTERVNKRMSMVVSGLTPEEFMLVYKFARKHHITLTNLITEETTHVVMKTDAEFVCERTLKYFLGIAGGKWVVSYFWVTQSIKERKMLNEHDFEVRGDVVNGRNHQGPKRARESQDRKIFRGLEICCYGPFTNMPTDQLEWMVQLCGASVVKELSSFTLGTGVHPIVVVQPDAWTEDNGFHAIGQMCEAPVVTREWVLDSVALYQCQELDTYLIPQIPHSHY
As to `O=C1c2ccccc2S(=O)(=O)c2cc(N3CCC(Cc4ccccc4)CC3)ccc21`, the Ki amounted to 38 µM.

With `CC1CCN(c2ccc3c(c2)S(=O)(=O)c2ccccc2C3=O)CC1`, the Ki was found to be 39 µM. For `NC(=O)C1CCN(c2ccc3c(c2)S(=O)(=O)c2ccccc2C3=O)CC1`, the inhibitory constant (Ki) is 30 µM.
